Literature values in patent US20120046172A1, “METHODS FOR USE OF TRIALKYLBENZYLAMMONIUM HALIDE COMPOSITIONS AS NON-SELECTIVE TERRESTRIAL PLANT HERBICIDES” (priority 2010, published 2012).

Columns and labels:
[1] = system: bean plants; details: compositions with ADBAC concentrations in the range of 0.1 to 1%; DD215228
[2] = system: wheat plants; details: compositions with ADBAC concentrations in the range of 0.1 to 1%; DD215228

Q: For “alkyldimethylbenzyl ammonium chloride [ADBAC]”, which “Effect on bean plants” value [1] is on record?
A: leaf desiccation and defoliation

Q: What about the “Effect on wheat plants” value [2] of the same substance?
A: plant stunting
